From patent publication US20020119178A1 (priority 2001, published 2002)
Like-named read-outs stand apart in the source and are kept apart here. Starred links: 1 amine or outer side, 2 acyl side, 3 side chain; linkers in the order of their positions; H or OH if unused. Positions of bridges follow the written chain, without caps; N, C: chain ends. Non-standard residues stand in square brackets, D forms with d. Residues, ends and D or L forms follow the SMILES beside them. Chains are numbered I, II in the order given. Actinocin(9to1) = Cc1c2oc3c(C)ccc(C(=O)[*:1])c3nc-2c(C(=O)[*:2])c(N)c1=O; NMeV = CN[C@H](C(=O)O)C(C)C; Sar = CNCC(=O)O

Tests used:
[1] = test system: human saphenous vein smooth muscle cells (HSV-SMC); experiment: HSV-SMC proliferation assay (MTS), drugs at known concentrations; format: cell-based; conditions: read-out: IC50 (concentration at which the proliferation is reduced by 50%)
Method: (§1) A proliferation assay was performed using human saphenous vein smooth muscle cells (HSV-SMC) with cells at passage 3-5. HSV-SMC were established in 96-well plates for 24 hours then serum starved for 48 hours. […] A positive control (100%) was set for cells exposed to DMEM supplemented with 20% FBS only while a negative control (0%) was set for cells exposed to only unsupplemented DMEM. Cells were stimulated for 72 hours with the anti-proliferative drug containing culture media. A solution of [3-(4,5-dimethylthiazol-2-yl)-5-(3-carboxymethoxyphenyl)-2-(4-sulfophenyl)-2H-tetrazolium](MTS, a cell proliferation marker) is then added onto the cells for 3 hours. Absorbance at 490 nm is recorded using a 96-well plate reader.

[2] = for residual tritiated actinomycin D remaining on the discs following 8 days of elution: physiological medium
Method: In FIG. 1, the electrochemical cell 10 is a standard three-electrode setup. A saturated Calomel electrode (SCE) was used as the reference electrode 12 and the counter electrode 14 was a circular platinum foil (3 cm^2). A 316L stainless steel disk (0.8 cm^2 area) connected to a platinum wire 16 was used as the working electrode 18. The cell was filled with an aqueous electrodeposition solution composed of 5 mM sulfuric acid and 20 mM of an aryldiazonium-containing molecule as described in FIG. 2 for the cyclic voltammetry electrochemical process. The electrodeposition of the aryldiazonium onto the stainless steel device was applied using 2 consecutive cyclic scans ranging from −0.5 V to −1.75 V relatively to the SCE reference electrode. The current-voltage response was followed on a XY recorder. Following electrodeposition, the device was consecutively washed with water and acetonitrile to remove impurities.
FIG. 5 illustrates the necessity of the presence of a molecule containing a diazonium moiety to retain tritiated actinomycin D deposited on the surface of stainless steel 316L discs. In this experiment, stainless steel 316L discs, which are made out of the same material as the stainless steel stents and other endovascular devices, are either functionalized with 4-bromobenzenediazonium or left bare. The discs are then exposed to a solution containing 30 μg of tritiated actinomycin D whereas the solvent is acetonitrile or ethanol. Following dipping, the discs are left to dry at room temperature until the solvent evaporates. The discs are first washed in deionized water for 5 minutes followed by a 5-minute wash in a physiologic solution. The discs are then counted in a scintillation counter.
FIG. 6 illustrates the loading and retention capacity of tritiated actinomycin D immobilized as described previously onto stainless steel 316L discs, with the exception however that water was also used as solvent for immobilizing tritiated actinomycin D. Following immobilization, the discs were first washed for 5 minutes in deionized water followed by a 5-minute wash in a physiologic solution. The loading of tritiated actinomycin D onto the stainless steel discs varied according of the type of solvent used: acetonitrile>ethanol>water.
FIG. 7 illustrates the effect of varying concentrations of the 4-bromobenzenediazonium solution on the loading and retention of 30 μg of tritiated actinomycin D following 8 days of elution in a physiological medium. Stainless steel 316L discs were exposed to varying concentrations of 4-bromobenzenediazonium solution before electrodeposition with the set-up as described in FIG. 1. Actinomycin D loading in the ethanol solution increased 1.6 fold, from 4324±329 for […] to 7146±80 for 20 mM. […]

[3] = test system: human saphenous vein smooth muscle cells (HSV-SMC); format: cell-based; conditions: bromobenzenediazonium coated discs only, no drug
Method: as §1

[4] = Homo sapiens, HSV-SMC passage 3-5, 20% FBS, 72 hours, MTS absorbance 490 nm

CO[C@H]1C[C@@H]2CC[C@@H](C)[C@@](O)(O2)C(=O)C(=O)N2CCCC[C@H]2C(=O)O[C@H]([C@H](C)C[C@@H]2CC[C@@H](O)[C@H](OC)C2)CC(=O)[C@H](C)/C=C(\C)[C@@H](O)[C@@H](OC)C(=O)[C@H](C)C[C@H](C)/C=C/C=C/C=C/1C [rapamycin]
IC50 ([1]; Homo sapiens, 72 h): 0.12 nM

CC[C@]1(O)C[C@@H]2CN(CCc3c([nH]c4ccccc34)[C@@](C(=O)OC)(c3cc4c(cc3OC)N(C)[C@H]3[C@@](O)(C(=O)OC)[C@H](OC(C)=O)[C@]5(CC)C=CCN6CC[C@]43[C@@H]65)C2)C1 [vinblastine]
IC50 [1, 4]: 0.74 nM

Cc1c2oc3c(C)ccc(C(=O)N[C@@H]4C(=O)N[C@H](C(C)C)C(=O)N5CCC[C@H]5C(=O)N(C)CC(=O)N(C)[C@@H](C(C)C)C(=O)O[C@@H]4C)c3nc-2c(C(=O)N[C@@H]2C(=O)N[C@H](C(C)C)C(=O)N3CCC[C@H]3C(=O)N(C)CC(=O)N(C)[C@@H](C(C)C)C(=O)O[C@@H]2C)c(N)c1=O [actinomycin D] (I: T[dV]P[Sar][NMeV] / II: T[dV]P[Sar][NMeV]; ester I:1-I:C, II:1-II:C; linker I:N-II:N via Actinocin(9to1))
IC50 ([1]; HSV-SMC passage 3-5, 20% FBS, 72 hours, MTS absorbance 490 nm): 0.081 nM
residual tritiated actinomycin D remaining on the discs following 8 days of elution ([2]; 0.02 mM 4-bromobenzenediazonium): 348±52
residual tritiated actinomycin D remaining on the discs following 8 days of elution ([2]; 20 mM 4-bromobenzenediazonium): 2539±43
drug remaining on the discs after 10 days of elution ([2]; 4-bromobenzenediazonium functionalized discs loaded with acetonitrile, physiological solution): ~20%
drug remaining on discs following 10 days of elution ([2]; functionalized discs loaded with acetonitrile or ethanol): substantial amounts

CC(=O)O[C@H]1C(=O)[C@@]2(C)[C@H]([C@H](OC(=O)c3ccccc3)[C@]3(O)C[C@H](OC(=O)[C@H](O)[C@@H](NC(=O)c4ccccc4)c4ccccc4)C(C)=C1C3(C)C)[C@]1(OC(C)=O)CO[C@@H]1C[C@@H]2O [paclitaxel]
IC50 [1, 4]: 48 nM

F[B-](F)(F)F.N#[N+]c1ccc(Br)cc1 [molecule 5, 4-bromobenzenediazonium tetrafluoroborate]
effect of elution on cell proliferation [3]: does not inhibit cell proliferation

COc1cccc2c1C(=O)c1c(O)c3c(c(O)c1C2=O)C[C@@](O)(C(=O)CO)C[C@@H]3O[C@H]1C[C@H](N)[C@H](O)[C@H](C)O1 [doxorubicin]
IC50 [1, 4]: 8 nM

CC[C@]1(O)C[C@H]2CN(CCc3c([nH]c4ccccc34)[C@@](C(=O)OC)(c3cc4c(cc3OC)N(C=O)[C@H]3[C@@](O)(C(=O)OC)[C@H](OC(C)=O)[C@]5(CC)C=CCN6CC[C@]43[C@@H]65)C2)C1 [vincristine]
IC50 ([1]; Homo sapiens, 72 h): 0.82 nM
